# What was measured:
# [1] = tested on: FLAG-tagged PRMT1 and His-tagged PRMT1; experiment: Pulldown assay of PRMT1 homodimerization; type: binding; conditions: 200 (and 500) μM compound vs DMSO
# Excerpt: The poses were obtained by docking with HYBRID onto previously obtained docking poses of TR-033 (TR-07 in cyan) and TR-036 (TR-07 in red). The two monomers are colored in dark and light gray. The dimerization arm of the right monomer is colored in pale pink. The αY helix of the other monomer is colored pale green. The SAH location (derived from a superposition with PDB ID 6NT2) is indicated in pale yellow, but the molecule was not present during the docking calculations. The two images on the right show a close-up view of each docking pose separately. […] The dashed line separates the first and the second monomer. […] The N-terminal αY helix, the SAH location (derived from a superposition with PDB ID 3Q7E), the arginine acceptor site (derived from a superposition with PDB ID 1OR8), the Double E loop, and the dimerization arm are indicated. […] Subsequently, FLAG-beads were washed and bead-bound proteins were analyzed together with an His-tagged PRMT1 input (20 ng) by Western blot using antibodies against the His- and FLAG-tags. As negative control, anti-FLAG resin saturated with FLAG peptide was incubated with His-tagged PRMT1. The His-PRMT1 signals were densitometrically quantified, corrected to the FLAG-PRMT1 signals, and expressed relative to the solvent control, as specified by the numbers below the immunostainings. Molecular weights (kDa) of the protein marker are indicated.
# To evaluate the effect of small-molecule PRMT1 modulators on the dimerization of His-tagged and FLAG-tagged PRMT1, pulldown assays were conducted. For the binding reactions, 1 μg of bead-bound FLAG-tagged PRMT1 was preincubated with or without compounds at a total volume of 200 μL IPH buffer (50 mM Tris/HCl pH 8.0, 5 mM EDTA, 0.5% (v/v) NP-40, 150 mM NaCl) containing protease inhibitors (leupeptin, aprotinin, PMSF; Sigma-Aldrich) at 4 °C and under gentle agitation for 30 min. Subsequently, 0.02 μg His-tagged PRMT1 was added per reaction and incubated at 4 °C and under gentle agitation for 15 min. Finally, the beads were washed 3 times in IPH buffer containing 400 mM NaCl and analyzed by SDS-PAGE and immunoblotting.
# [2] = tested on: FLAG-tagged PRMT1 or His-tagged PRMT1; experiment: Radioactive in vitro methyltransferase assay, autoradiography (core histones or GST-GAR); type: biochemical, rat, human; conditions: 100 μM compound, [14C]-methyl-SAM, vs DMSO-treated control
# Excerpt: Given that the effects of the PRMT1 activators had been screened and quantified so far using the F-PRMT assay, we next assessed the efficacy of the selected compounds in stimulating PRMT1-mediated methylation of natural substrates. To this end, we conducted in vitro methyltransferase assays using recombinant PRMT1 and core histones or GST-tagged GAR (glycine-arginine-rich domain of fibrillarin) as substrates of PRMT1. , Addition of the cofactor [^14C]-methyl-SAM allowed for the visualization of radiolabeled methyl group incorporation into the substrate proteins by SDS-PAGE and autoradiography or by liquid scintillation counting. […] It is important to note that PRMT1 methylates both H2A and H4, albeit with variable efficiency. […] As a result, the methylation signals of both histones were considered in the quantification process (Figure A, B).
# As negative control (Ctrl (−)), PRMT1 enzymes and [^14C-methyl]-SAM were incubated without substrates. Subsequently, samples were separated by SDS-PAGE, blotted, and analyzed by autoradiography. Substrates (H2A, H4 or GST-GAR) and molecular weights (kDa) of the protein marker are indicated. Black lines designate composite images, assembled from the same blots and exposure times. The methylation signals of the substrates were densitometrically quantified, and expressed relative to the DMSO-treated control, as indicated by the numbers below the autoradiographs. Representative results are depicted, with quantification graphs (below the autoradiographs in A and B) summarizing biological replicates. […] Subsequently, GST-GAR was immobilized on glutathione-beads and PRMT1 activity was measured by quantifying the incorporation of ^14C-methyl groups (in cpm) using liquid scintillation counting. […] Cell viability was quantified using the CellTiter-Glo assay. Viability of compound-treated cells is shown in % relative to the viability of solvent-treated cells, which was set to 100% (mean ± SD, n = 3), and then plotted against the logarithm of the compound concentrations. Concentration-viability curves were fitted by nonlinear regression, with the half-maximal inhibitory concentration (IC50) of the compounds for PANC-1 cell viability and the coefficient of determination (R^2) indicated. […] Subsequently, whole-cell extracts were prepared and analyzed by Western blot using antibodies against ADMA, ACTIN (ACT), and VINCULIN (VINC), of which the latter two stainings served as loading controls. Molecular weights (kDa) of the protein marker are indicated. All the ADMA signals per lane were densitometrically quantified, normalized to the signal of the respective loading control and expressed relative to the DMSO-treated control, as indicated by the numbers below the immunostainings. […]
Compound,interaction of FLAG-tagged PRMT1 and His-tagged PRMT1 (homodimerization) [1],"PRMT1 methylation activity toward histones H2A and H4 and GAR, autoradiography [2]"
"CN(C)Cc1cccc(CN/C=C2\C(=O)NC(=O)c3ccccc32)c1.Cl [TR-07, (Z)-1-[3-({[(1,3-Dioxo-2,3-dihydroisoquinolin-4(1H)-lidene)methyl]amino}methyl)phenyl]-N,N-dimethylmethanaminium chloride]",elevated interaction of the two PRMT1 species,increased
"CN(C)Cc1cccc(-c2ccc3[nH]c(=O)c4ccccc4c3c2)c1 [TR-033, 2-{3-[(Dimethylamino)methyl]phenyl}phenanthridin-6(5H)-One]",elevated interaction of the two PRMT1 species,increased
"CCN(CC)Cc1cccc(N/C=C2\C(=O)NC(=O)c3ccccc32)c1.Cl [TR-036, (Z )-N-(3-{[(1,3-Dioxo-2,3-dihydroisoquinoline-4(1 H )-ylidene)methyl]amino}benzyl)-N -ethylethanaminium chloride]",elevated interaction of the two PRMT1 species,increased
"(Z)-2-(2-{[(1,3-Dioxo-2,3-dihydroisoquinolin-4(1H)-ylidene)methyl]amino}phenyl)-N,N-dimethylethan-1-aminium chloride [ICTR-059]",elevated interaction of the two PRMT1 species,increased

# From publication PMC13576449, “Small-Molecule Activators of PRMT1: Discovery, SAR Analyses, and Proapoptotic Effects in Pancreatic Cancer Cells” (Journal of Medicinal Chemistry, 2026)
